Measurements reported in publication PMC11284800 (Journal of Medicinal Chemistry, 2024).
Where two headings read alike, the source gives them in different places.

Columns and labels:
[1] = Photophysical characterization in PBS; format: physicochemical; conditions: PBS pH 7.4
hCB1R = hCB1R (Homo sapiens, UniProt P21554); assay: [3H]CP55,940 displacement assay on CHO membranes, CB1R; format: binding; design: host or cells: CHO-K1 (CHOK1hCB1_bgal); conditions: for hCB1R % displacement at 10 µM: [3H]CP55,940 displacement at 10 µM compound, ± SEM; for Binding to CB1R (in words): radioligand binding assay; for Ki: [3H]CP55,940 displacement
Sequence of hCB1R (P21554 whole entry): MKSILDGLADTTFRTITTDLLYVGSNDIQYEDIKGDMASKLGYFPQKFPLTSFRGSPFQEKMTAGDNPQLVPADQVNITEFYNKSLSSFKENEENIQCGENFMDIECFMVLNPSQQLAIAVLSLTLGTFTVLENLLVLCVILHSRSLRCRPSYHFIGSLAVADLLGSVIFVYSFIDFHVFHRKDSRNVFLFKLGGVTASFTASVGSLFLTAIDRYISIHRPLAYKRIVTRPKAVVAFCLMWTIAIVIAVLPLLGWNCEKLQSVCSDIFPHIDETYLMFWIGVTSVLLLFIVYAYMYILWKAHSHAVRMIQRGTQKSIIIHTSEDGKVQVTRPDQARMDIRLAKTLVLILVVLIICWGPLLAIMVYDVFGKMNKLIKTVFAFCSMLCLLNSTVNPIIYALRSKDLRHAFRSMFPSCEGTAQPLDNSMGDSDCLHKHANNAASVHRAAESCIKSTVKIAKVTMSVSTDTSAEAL

human CB2R = biological target: T1, human CB2R (Homo sapiens, UniProt P34972); assay: [3H]CP55,940 displacement assay on CHO membranes, CB2R; format: binding; conditions: for hCB2R % displacement at 10 µM: [3H]CP55,940 displacement at 10 µM compound, ± SEM; for Binding to CB2R (in words): radioligand binding assay; for Ki: [3H]CP55,940 displacement
T1 construct: host or cells: CHO-K1 (CHOK1hCB2_bgal)
T1 sequence (P34972 whole entry): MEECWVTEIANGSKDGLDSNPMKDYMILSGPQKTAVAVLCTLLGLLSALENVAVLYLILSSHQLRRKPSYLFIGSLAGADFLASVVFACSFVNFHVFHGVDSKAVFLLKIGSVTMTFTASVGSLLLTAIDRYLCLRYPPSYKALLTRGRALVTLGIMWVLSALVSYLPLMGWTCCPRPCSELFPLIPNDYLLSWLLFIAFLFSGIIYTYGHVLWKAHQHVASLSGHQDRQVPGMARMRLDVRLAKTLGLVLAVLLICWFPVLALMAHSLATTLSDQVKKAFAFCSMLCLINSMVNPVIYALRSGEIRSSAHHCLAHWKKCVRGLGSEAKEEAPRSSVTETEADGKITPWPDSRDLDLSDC

[2] = read-out: hCB1R Ki, CHO membranes stably expressing human CB1R, means of three experiments
[3] = read-out: hCB2R Ki, CHO membranes stably expressing human CB2R, means of three experiments
[4] = hCB1R Ki, CHO membranes stably expressing human CB1R, means of three experiments
[5] = hCB2R Ki, CHO membranes stably expressing human CB2R, means of three experiments
[6] = CHO membranes stably expressing human CB1R, means of three experiments, read-out: hCB1R Ki
[7] = CHO membranes stably expressing human CB2R, means of three experiments, read-out: hCB2R Ki

Compound	Abs (absorbance maximum) [1]	Em (emission maximum) [1]	QY (quantum yield) [1]	hCB1R % displacement at 10 µM (hCB1R)	hCB2R % displacement at 10 µM (human CB2R)	Ki (hCB1R; [4])	Ki (human CB2R; [5])	Ki (hCB1R; [6])	Ki (human CB2R; [7])	also measured
CCC(CC)(NC(=O)c1nn(-c2ccc(Cl)cc2Cl)c2c1CCCc1cc(Cl)ccc1-2)C(=O)NCCOCCOCCNC(=O)c1ccc2c(c1)C(=O)OC21c2ccc(N(C)C)cc2Oc2cc(N(C)C)ccc21 [Compound 33]	520 nm	585 nm	11.10%	-5 ± 1%	21 ± 3%					Binding to CB1R (in words) (hCB1R): did not bind; Ki (hCB1R; [2]): > 10 µM; Binding to CB2R (in words) (human CB2R): did not bind; Ki (human CB2R; [3]): > 10 µM
CCC(CC)(NC(=O)c1nn(-c2ccc(Cl)cc2Cl)c2c1CCCc1cc(Cl)ccc1-2)C(=O)NCCOCCOCCNC(=O)OC(C)(C)C [Compound 24, tert-Butyl (1-(8-Chloro-1-(2,4-dichlorophenyl)-1,4,5,6-tetrahydrobenzo[6,7]cyclohepta[1,2-c]pyrazol-3-yl)-3,3-diethyl-1,4-dioxo-8,11-dioxa-2,5-diazatridecan-13-yl)carbamate]				28 ± 3%		> 10 µM	0.776 µM			
CCC(CC)(NC(=O)c1nn(Cc2cccc(F)c2)c2ccccc12)C(=O)NCCOCCOCCNc1ccc([N+](=O)[O-])c2nonc12 [Compound 36, 1-(3-Fluorobenzyl)-N-(3-((2-(2-(2-((7-nitrobenzo[c][1,2,5]oxadiazol-4-yl)amino)ethoxy)ethoxy)ethyl)carbamoyl)pentan-3-yl)-1H-indazole-3-carboxamide]	475 nm	565 nm	1.50%			1.17 µM	0.079 µM			
CCC(CC)(NC(=O)c1cnc(OCCOC)c(-c2ccc(Cl)cc2)n1)C(=O)NCCOCCOCCNc1ccc([N+](=O)[O-])c2nonc12 [Compound 34, 6-(4-Chlorophenyl)-5-(2-methoxyethoxy)-N-(3-((2-(2-(2-((7-nitrobenzo[c][1,2,5]oxadiazol-4-yl)amino)ethoxy)ethoxy)ethyl)carbamoyl)pentan-3-yl)pyrazine-2-carboxamide]	480 nm	545 nm	2.00%	32 ± 6%				> 10 µM		Ki (human CB2R; CHO membranes, read-out: hCB2R pKi ± SEM (converted)): 0.708 µM
CCC(CC)(NC(=O)c1cc(-c2cc(C(F)(F)F)ccc2C(F)(F)F)n(C[C@H]2CCCO2)c1C)C(=O)NCCOCCOCCNc1ccc([N+](=O)[O-])c2nsnc12 [Compound 51, (R)-5-(2,5-Bis(trifluoromethyl)phenyl)-2-methyl-N-(3-((2-(2-(2-((7-nitrobenzo[c][1,2,5]thiadiazol-4-yl)amino)ethoxy)ethoxy)ethyl)carbamoyl)pentan-3-yl)-1-((tetrahydrofuran-2-yl)methyl)-1H-pyrrole-3-carboxamide]	465 nm	550 nm	0.30%					0.316 µM	0.493 µM	
CCC(CC)(NC(=O)c1nn(-c2ccc(Cl)cc2Cl)c(-c2ccc(Cl)cc2)c1C)C(=O)NCCOCCOCCOCCOCCNC(=O)OC(C)(C)C [Compound 23d, tert-Butyl (1-(5-(4-Chlorophenyl)-1-(2,4-dichlorophenyl)-4-methyl-1H-pyrazol-3-yl)-3,3-diethyl-1,4-dioxo-8,11,14,17-tetraoxa-2,5-diazanonadecan-19-yl)carbamate]						0.603 µM	2.12 µM			
CCC(CC)(NC(=O)c1nn(Cc2cccc(F)c2)c2ccccc12)C(=O)NCCOCCOCCNC(=O)OC(C)(C)C [Compound 27, tert-Butyl (3,3-Diethyl-1-(1-(3-fluorobenzyl)-1H-indazol-3-yl)-1,4-dioxo-8,11-dioxa-2,5-diazatridecan-13-yl)carbamate]				48 ± 2%		> 10 µM	0.108 µM			
CCC(CC)(NC(=O)c1cc(-c2cc(C(F)(F)F)ccc2C(F)(F)F)n(C[C@H]2CCCO2)c1C)C(=O)NCCOCCOCCNc1ccc([N+](=O)[O-])c2n[nH]nc12 [Compound 52, (R)-5-(2,5-Bis(trifluoromethyl)phenyl)-2-methyl-N-(3-((2-(2-(2-((7-nitro-2H-benzo[d][1,2,3]triazol-4-yl)amino)ethoxy)ethoxy)ethyl)carbamoyl)pentan-3-yl)-1-((tetrahydrofuran-2-yl)methyl)-1H-pyrrole-3-carboxamide]	425 nm	495 nm	0.10%					0.225 µM	1.62 µM	
CCC(CC)(NC(=O)c1nn(-c2ccc(Cl)cc2Cl)c(-c2ccc(Cl)cc2)c1C)C(=O)NCCOCCOCCNC(=O)c1ccc2c(c1)C(=O)OC21c2ccc(N(C)C)cc2Oc2cc(N(C)C)ccc21 [Compound 31]	520 nm	585 nm	17.50%	37 ± 5%	32 ± 6%					Ki (hCB1R; [2]): > 10 µM; Ki (human CB2R; [3]): > 10 µM
CCC(CC)(NC(=O)c1cnc(OCC2CC2)c(-c2ccc(F)cc2)c1)C(=O)NCCOCCOCCNC(=O)c1ccc2c(c1)C(=O)OC21c2ccc(N(C)C)cc2Oc2cc(N(C)C)ccc21 [Compound 41]	560 nm	585 nm	47.40%	9 ± 1%	27 ± 3%			> 10 µM	> 10 µM	Binding to CB1R (in words) (hCB1R): did not bind; Binding to CB2R (in words) (human CB2R): did not bind
CCC(CC)(NC(=O)c1cnc(OCC2CC2)c(-c2ccc(F)cc2)c1)C(=O)NCCOCCOCCNc1ccc([N+](=O)[O-])c2nonc12 [Compound 40, 6-(Cyclopropylmethoxy)-5-(4-fluorophenyl)-N-(3-((2-(2-(2-((7-nitrobenzo[c][1,2,5]oxadiazol-4-yl)amino)ethoxy)ethoxy)ethyl)carbamoyl)pentan-3-yl)nicotinamide]	465 nm	550 nm	1.30%	34 ± 1%		> 10 µM	0.481 µM			
CCC(CC)(NC(=O)c1cc(-c2cc(C(F)(F)F)ccc2C(F)(F)F)n(C[C@H]2CCCO2)c1C)C(=O)NCCOCCOCCOCCNC(=O)OC(C)(C)C [Compound 22c, tert-Butyl (R)-(1-(5-(2,5-Bis(trifluoromethyl)phenyl)-2-methyl-1-((tetrahydrofuran-2-yl)methyl)-1H-pyrrol-3-yl)-3,3-diethyl-1,4-dioxo-8,11,14-trioxa-2,5-diazahexadecan-16-yl)carbamate]					23 ± 5%			1.22 µM	> 10 µM	
CCC(CC)(NC(=O)c1cnc(OCCOC)c(-c2ccc(Cl)cc2)n1)C(=O)NCCOCCOCCNC(=O)c1ccc2c(c1)C(=O)OC21c2ccc(N(C)C)cc2Oc2cc(N(C)C)ccc21 [Compound 35]	560 nm	590 nm	56.20%	-6 ± 5%	2 ± 0%			> 10 µM	> 10 µM	Binding to CB1R (in words) (hCB1R): did not bind; Binding to CB2R (in words) (human CB2R): did not bind
CCC(CC)(NC(=O)c1cc(-c2cc(C(F)(F)F)ccc2C(F)(F)F)n(C[C@H]2CCCO2)c1C)C(=O)NCCOCCNC(=O)OC(C)(C)C [Compound 22a, tert-Butyl (R)-(2-(2-(2-(5-(2,5-Bis(trifluoromethyl)phenyl)-2-methyl-1-((tetrahydrofuran-2-yl)methyl)-1H-pyrrole-3-carboxamido)-2-ethylbutanamido)ethoxy)ethyl)carbamate]					20 ± 3%			1.42 µM	> 10 µM	
CCC(CC)(NC(=O)c1cnc(OCCOC)c(-c2ccc(Cl)cc2)n1)C(=O)NCCOCCOCCNC(=O)OC(C)(C)C [Compound 26, tert-Butyl (1-(6-(4-Chlorophenyl)-5-(2-methoxyethoxy)pyrazin-2-yl)-3,3-diethyl-1,4-dioxo-8,11-dioxa-2,5-diazatridecan-13-yl)carbamate]				32 ± 6%				> 10 µM	0.701 µM	
CCC(CC)(NC(=O)c1nn(-c2ccc(Cl)cc2Cl)c(-c2ccc(Cl)cc2)c1C)C(=O)NCCOCCOCCOCCNC(=O)OC(C)(C)C [Compound 23c, tert-Butyl (1-(5-(4-Chlorophenyl)-1-(2,4-dichlorophenyl)-4-methyl-1H-pyrazol-3-yl)-3,3-diethyl-1,4-dioxo-8,11,14-trioxa-2,5-diazahexadecan-16-yl)carbamate]						0.397 µM	2.12 µM			
CCC(CC)(NC(=O)c1nn(-c2ccc(Cl)cc2Cl)c(-c2ccc(Cl)cc2)c1C)C(=O)NCCOCCNC(=O)OC(C)(C)C [Compound 23a, tert-Butyl (2-(2-(2-(5-(4-Chlorophenyl)-1-(2,4-dichlorophenyl)-4-methyl-1H-pyrazole-3-carboxamido)-2-ethylbutanamido)ethoxy)ethyl)carbamate]							1.59 µM			Ki (hCB1R; hCB1R pKi ± SEM, CHO membranes): 0.0372 µM
CCC(CC)(NC(=O)c1cnc(OCC2CC2)c(-c2ccc(F)cc2)c1)C(=O)NCCOCCOCCNC(=O)OC(C)(C)C [Compound 25, tert-Butyl (1-(6-(Cyclopropylmethoxy)-5-(4-fluorophenyl)pyridin-3-yl)-3,3-diethyl-1,4-dioxo-8,11-dioxa-2,5-diazatridecan-13-yl)carbamate]						3.06 µM	0.818 µM			Ki (hCB1R; hCB1R pKi ± SEM, CHO membranes): 3.02 µM
